Test results from PMC8763936 (Investigational New Drugs, 2021).
Several values for one entry are separate records, joined by “and”; a condition that tells them apart may be missing. Identical values can stand only once.

Tests used:
[1] = molecular target: T1, MDR1 (P-gp) (Homo sapiens, UniProt P08183); test: In vitro P-gp inhibition; type: in vitro ADME
T1 construct: expressed in transfected cells

[2] = system: CYP3A4; test: Induction of CYP enzymes in human hepatocytes; conditions: for Relative Effectiveness ± SD Based on CYP Activity / Relative Effectiveness ± SD Based on CYP mRNA: percent of positive control
Procedure: (§1) In vitro induction of CYP mRNA (CYPs 1A2, 2C8, 2C9 and 3A4) or enzyme activity (CYPs 1A2, 2C19 and 3A4) was assessed in human hepatocytes.

[3] = system: CYP1A2; test: Induction of CYP enzymes in human hepatocytes; conditions: for Relative Effectiveness ± SD Based on CYP Activity / Relative Effectiveness ± SD Based on CYP mRNA: percent of positive control
Procedure: as §1

[4] = molecular target: T2, CYP1A2 (Homo sapiens, UniProt P05177); test: Metabolism by recombinantly expressed CYP enzymes
T2 sequence (P05177 1-516): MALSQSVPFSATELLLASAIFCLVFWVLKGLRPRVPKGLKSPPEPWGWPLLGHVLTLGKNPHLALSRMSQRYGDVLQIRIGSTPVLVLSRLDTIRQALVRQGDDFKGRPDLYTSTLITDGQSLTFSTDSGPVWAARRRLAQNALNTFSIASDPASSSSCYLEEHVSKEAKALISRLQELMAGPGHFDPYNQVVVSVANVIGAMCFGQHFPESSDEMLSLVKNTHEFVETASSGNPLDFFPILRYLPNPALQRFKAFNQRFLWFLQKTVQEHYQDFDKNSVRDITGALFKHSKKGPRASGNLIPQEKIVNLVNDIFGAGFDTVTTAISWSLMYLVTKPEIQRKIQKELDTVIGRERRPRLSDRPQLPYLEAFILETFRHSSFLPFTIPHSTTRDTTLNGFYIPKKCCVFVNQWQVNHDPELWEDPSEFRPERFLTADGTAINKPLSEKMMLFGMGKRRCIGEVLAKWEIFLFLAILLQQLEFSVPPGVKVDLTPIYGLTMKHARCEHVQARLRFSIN

[5] = molecular target: CYP2C19 (Homo sapiens, UniProt P33261); test: In vitro CYP inhibition in human liver microsomes; type: in vitro ADME; set-up: purchased Corning-Gentest
[6] = system: human CYPs 1A2, 2B6, 2C8, 2C9, 2C19, 2D6 and 3A; test: In vitro CYP inhibition in human liver microsomes, CYPs not named one by one; type: in vitro ADME; conditions: entrectinib: all but CYP3A4/5, M5: all but CYP2C8, read-out: IC50 for the other CYPs tested
[7] = molecular target: T3, CYP2C8 (Homo sapiens, UniProt P10632); test: Metabolism by recombinantly expressed CYP enzymes
T3 sequence (P10632 1-490): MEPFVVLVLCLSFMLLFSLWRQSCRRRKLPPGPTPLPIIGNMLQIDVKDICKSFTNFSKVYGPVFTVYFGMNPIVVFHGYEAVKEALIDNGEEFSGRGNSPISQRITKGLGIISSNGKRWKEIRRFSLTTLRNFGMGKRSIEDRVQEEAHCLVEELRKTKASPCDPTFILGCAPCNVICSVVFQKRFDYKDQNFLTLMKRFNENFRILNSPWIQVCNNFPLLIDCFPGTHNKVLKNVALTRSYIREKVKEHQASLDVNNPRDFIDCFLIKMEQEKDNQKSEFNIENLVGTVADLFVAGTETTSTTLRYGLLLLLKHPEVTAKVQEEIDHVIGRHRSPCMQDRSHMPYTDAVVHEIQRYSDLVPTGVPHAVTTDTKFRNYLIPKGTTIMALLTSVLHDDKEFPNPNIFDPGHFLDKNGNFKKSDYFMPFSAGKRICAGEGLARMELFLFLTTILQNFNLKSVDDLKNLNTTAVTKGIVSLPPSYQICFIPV

[8] = Estimated free plasma Cmax in patients treated at 600 mg QD; type: in vivo, human; conditions: unbound fraction of 1% used
[9] = Study 1 Cohort 1: single dose entrectinib alone or with itraconazole, plasma pharmacokinetics; conditions: for M5/Entrectinib ratio, AUCinf / M5/Entrectinib ratio, Cmax: arithmetic mean (CV)
Procedure: All doses of study medication were administered at the study center.

[10] = molecular target: CYP2C9 (Homo sapiens, UniProt P11712); test: Metabolism by recombinantly expressed CYP enzymes
[11] = Intrinsic clearance in long-term micropatterned co-cultured human hepatocytes; type: in vitro ADME
[12] = molecular target: T4, CYP1A1 (Homo sapiens, UniProt P04798); test: Metabolism by recombinantly expressed CYP enzymes; set-up: Entrectinib Metabolism to M5: key to the marks not given beside the values
T4 sequence (P04798 1-512): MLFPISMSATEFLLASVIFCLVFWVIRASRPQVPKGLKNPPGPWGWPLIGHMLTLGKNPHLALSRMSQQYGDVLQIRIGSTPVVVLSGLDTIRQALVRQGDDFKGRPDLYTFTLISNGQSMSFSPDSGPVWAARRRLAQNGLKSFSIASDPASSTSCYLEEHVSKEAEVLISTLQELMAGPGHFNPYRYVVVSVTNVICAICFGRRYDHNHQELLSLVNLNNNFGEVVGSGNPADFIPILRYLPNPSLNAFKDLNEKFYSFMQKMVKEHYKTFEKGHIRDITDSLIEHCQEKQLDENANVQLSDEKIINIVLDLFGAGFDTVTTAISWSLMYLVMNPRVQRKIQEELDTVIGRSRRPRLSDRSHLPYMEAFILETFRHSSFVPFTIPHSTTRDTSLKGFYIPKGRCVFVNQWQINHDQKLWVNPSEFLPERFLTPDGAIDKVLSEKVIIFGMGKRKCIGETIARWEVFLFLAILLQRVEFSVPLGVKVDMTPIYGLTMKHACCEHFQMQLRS

[13] = molecular target: T5, CYP2D6 (Homo sapiens, UniProt P10635); test: In vitro CYP inhibition in human liver microsomes; type: in vitro ADME; set-up: purchased Corning-Gentest
[14] = molecular target: T5, CYP2D6; test: Metabolism by recombinantly expressed CYP enzymes
[15] = system: CYPs 1A2, 2B6, 2C8, 2C9, 2C19 and 2D6 (all tested CYPs but CYP3A4/5); test: In vitro CYP inhibition in human liver microsomes, CYPs not named one by one; type: in vitro ADME; conditions: human, read-out: IC50 for the other CYPs tested
[16] = Entrectinib 100 mg alone, geometric mean (geometric CV)
[17] = Entrectinib 100 mg with itraconazole 200 mg QD, geometric mean (geometric CV)
[18] = Entrectinib 100 mg with itraconazole

T5 sequence (P10635 whole entry): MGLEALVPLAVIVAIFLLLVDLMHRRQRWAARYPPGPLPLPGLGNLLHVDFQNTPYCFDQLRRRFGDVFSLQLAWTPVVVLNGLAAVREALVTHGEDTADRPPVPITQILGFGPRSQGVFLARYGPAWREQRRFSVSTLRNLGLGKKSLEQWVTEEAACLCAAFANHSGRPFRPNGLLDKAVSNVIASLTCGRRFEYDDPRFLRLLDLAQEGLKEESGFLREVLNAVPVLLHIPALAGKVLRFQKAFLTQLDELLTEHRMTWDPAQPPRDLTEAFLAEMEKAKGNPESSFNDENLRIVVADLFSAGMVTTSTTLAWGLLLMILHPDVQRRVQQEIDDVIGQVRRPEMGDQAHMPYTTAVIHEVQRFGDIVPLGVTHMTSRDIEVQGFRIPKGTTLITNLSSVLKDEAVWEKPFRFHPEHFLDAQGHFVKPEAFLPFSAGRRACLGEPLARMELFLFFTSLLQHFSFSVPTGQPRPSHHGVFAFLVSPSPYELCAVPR
T1 sequence (P08183 whole entry): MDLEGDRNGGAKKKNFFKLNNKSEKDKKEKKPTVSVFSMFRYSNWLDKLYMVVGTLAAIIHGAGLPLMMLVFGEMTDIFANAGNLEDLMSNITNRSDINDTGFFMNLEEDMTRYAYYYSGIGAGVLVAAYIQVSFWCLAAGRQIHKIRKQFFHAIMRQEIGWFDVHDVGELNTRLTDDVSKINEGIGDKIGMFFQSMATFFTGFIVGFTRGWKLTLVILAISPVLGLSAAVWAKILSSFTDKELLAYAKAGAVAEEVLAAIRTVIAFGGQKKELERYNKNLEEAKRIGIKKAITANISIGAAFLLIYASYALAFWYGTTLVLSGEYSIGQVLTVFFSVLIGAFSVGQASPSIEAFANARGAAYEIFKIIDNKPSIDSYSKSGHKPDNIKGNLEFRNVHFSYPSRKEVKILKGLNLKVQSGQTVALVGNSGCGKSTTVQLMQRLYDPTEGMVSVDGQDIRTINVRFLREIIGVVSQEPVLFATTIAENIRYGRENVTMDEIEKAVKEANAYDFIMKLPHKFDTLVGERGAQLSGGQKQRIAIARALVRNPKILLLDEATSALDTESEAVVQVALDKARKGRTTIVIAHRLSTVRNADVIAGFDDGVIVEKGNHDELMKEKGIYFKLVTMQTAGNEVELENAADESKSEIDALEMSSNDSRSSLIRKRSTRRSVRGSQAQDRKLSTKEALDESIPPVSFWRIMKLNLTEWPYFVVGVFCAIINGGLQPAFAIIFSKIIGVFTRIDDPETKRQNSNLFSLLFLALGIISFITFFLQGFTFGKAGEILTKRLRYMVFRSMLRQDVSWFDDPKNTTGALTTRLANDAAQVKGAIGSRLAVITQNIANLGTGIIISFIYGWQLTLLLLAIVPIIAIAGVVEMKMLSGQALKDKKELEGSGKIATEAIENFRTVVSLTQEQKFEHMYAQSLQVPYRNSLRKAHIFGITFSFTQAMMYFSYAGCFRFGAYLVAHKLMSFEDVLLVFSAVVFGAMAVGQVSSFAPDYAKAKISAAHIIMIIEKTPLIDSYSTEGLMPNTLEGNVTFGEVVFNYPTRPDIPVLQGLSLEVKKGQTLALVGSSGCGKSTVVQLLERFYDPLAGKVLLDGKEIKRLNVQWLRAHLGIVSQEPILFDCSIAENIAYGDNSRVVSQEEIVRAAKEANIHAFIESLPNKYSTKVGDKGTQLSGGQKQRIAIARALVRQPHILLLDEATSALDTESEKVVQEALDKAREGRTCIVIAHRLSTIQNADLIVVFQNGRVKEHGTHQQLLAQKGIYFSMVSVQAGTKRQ
Chain of CYP2C9 (P11712 whole entry): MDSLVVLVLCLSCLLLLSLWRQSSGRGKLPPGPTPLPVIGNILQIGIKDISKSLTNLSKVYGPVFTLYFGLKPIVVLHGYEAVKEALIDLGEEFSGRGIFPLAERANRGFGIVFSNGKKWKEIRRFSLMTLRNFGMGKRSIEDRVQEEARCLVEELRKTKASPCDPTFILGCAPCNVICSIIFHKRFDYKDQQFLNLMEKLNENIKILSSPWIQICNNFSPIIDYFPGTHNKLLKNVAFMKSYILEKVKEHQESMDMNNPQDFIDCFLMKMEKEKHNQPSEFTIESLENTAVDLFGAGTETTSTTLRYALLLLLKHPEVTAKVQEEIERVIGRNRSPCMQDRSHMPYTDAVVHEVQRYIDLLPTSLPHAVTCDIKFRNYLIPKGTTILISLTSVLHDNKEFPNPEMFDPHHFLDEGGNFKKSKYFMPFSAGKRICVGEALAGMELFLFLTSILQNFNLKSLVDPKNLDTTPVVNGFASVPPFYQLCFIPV
Chain of CYP2C19 (P33261 whole entry): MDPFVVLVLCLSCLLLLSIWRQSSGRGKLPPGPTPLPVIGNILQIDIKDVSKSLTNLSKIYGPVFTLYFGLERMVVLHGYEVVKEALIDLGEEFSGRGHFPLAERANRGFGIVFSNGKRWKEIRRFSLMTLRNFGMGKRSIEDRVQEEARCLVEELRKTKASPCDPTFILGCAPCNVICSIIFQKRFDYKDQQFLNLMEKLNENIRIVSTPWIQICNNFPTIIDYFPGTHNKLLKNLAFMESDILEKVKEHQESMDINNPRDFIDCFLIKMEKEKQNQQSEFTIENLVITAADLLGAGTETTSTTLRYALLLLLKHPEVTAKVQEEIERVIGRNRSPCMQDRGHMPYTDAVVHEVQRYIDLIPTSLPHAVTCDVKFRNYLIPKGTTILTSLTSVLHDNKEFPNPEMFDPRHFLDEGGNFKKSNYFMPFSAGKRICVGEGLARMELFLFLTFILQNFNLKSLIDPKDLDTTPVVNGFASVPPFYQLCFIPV

SMILES: O=C(Nc1n[nH]c2ccc(Cc3cc(F)cc(F)c3)cc12)c1ccc(N2CCNCC2)cc1NC1CCOCC1 [M5]
- IC50 [1]: 10.1 µM and 10 µM
- Relative Effectiveness ± SD Based on CYP Activity ([2]; M5 0.5 µM): 1.25% ±1.17
- Relative Effectiveness ± SD Based on CYP mRNA ([2]; M5 0.5 µM): 1.16% ±1.47
- Relative Effectiveness ± SD Based on CYP Activity ([2]; M5 2.5 µM): 4.61% ±3.06
- Relative Effectiveness ± SD Based on CYP mRNA ([2]; M5 2.5 µM): 5.9% ±5.01
- Relative Effectiveness ± SD Based on CYP Activity ([2]; M5 10 µM): 5.42% ±4.45
- Relative Effectiveness ± SD Based on CYP mRNA ([2]; M5 10 µM): 16.5% ±11.2
- impact on the mRNA expression or activity of CYP3A4 ([2]; human hepatocytes): no significant impact
- Relative Effectiveness ± SD Based on CYP Activity ([3]; M5 0.5 µM): 0.575% ±0.657
- Relative Effectiveness ± SD Based on CYP mRNA ([3]; M5 0.5 µM): 0.22% ±0.23
- Relative Effectiveness ± SD Based on CYP Activity ([3]; M5 2.5 µM): 1.30% ±1.4
- Relative Effectiveness ± SD Based on CYP mRNA ([3]; M5 2.5 µM): 1.22% ±0.87
- Relative Effectiveness ± SD Based on CYP Activity ([3]; M5 10 µM): 0.445% ±0.27
- Relative Effectiveness ± SD Based on CYP mRNA ([3]; M5 10 µM): 1.70% ±0.15
- M5 Metabolism [4]: -
- IC50 [5]: > 10 µM
- IC50 [6]: > 10 µM
- M5 Metabolism [7]: -
- estimated free Cmax in plasma [8]: 13.4 nM
- AUCinf ([9]; Entrectinib 100 mg alone, single dose, healthy subjects, fasted, geometric mean (geometric CV)): 1710 (30%) nM•h
- M5/Entrectinib ratio, AUCinf ([9]; Entrectinib 100 mg alone): 0.288 (28%)
- M5/Entrectinib ratio, Cmax ([9]; Entrectinib 100 mg alone): 0.151 (26%)
- Cmax [9, 16]: 52.3 nM
- t1/2 [9, 16]: 41 h and 40.8 (22%) h
- Tmax ([9]; Entrectinib 100 mg alone, median (minimum, maximum)): 5.0 (3.0, 5.0) h
- AUCinf [9, 17]: 4310 (30%) nM•h
- Cmax [9, 17]: 31.5 nM
- t1/2 [9, 17]: 88.0 (32%) h
- Tmax ([9]; Entrectinib 100 mg with itraconazole 200 mg QD, median (minimum, maximum)): 6.0 (5.0, 48.0) h
- M5/Entrectinib ratio, AUCinf [9, 18]: 0.124 (29%)
- M5/Entrectinib ratio, Cmax [9, 18]: 0.0538 (34%)
- increase in AUCinf ([9]; coadministration of itraconazole with entrectinib): approximately 2.5 fold
- M5 exposure as share of entrectinib exposure (mean M5/entrectinib ratio for AUCinf) ([9]; entrectinib 100 mg alone): approximately 29%
- M5 exposure as share of entrectinib exposure (mean M5/entrectinib ratio for AUCinf) ([9]; entrectinib 100 mg coadministered with itraconazole): 12%
- M5 Metabolism [10]: -
- intrinsic clearance relative to entrectinib [11]: approximately twofold lower intrinsic clearance than entrectinib
- M5 Metabolism [12]: +
- IC50 [13]: > 10 µM
- M5 Metabolism [14]: -

SMILES: CN1CCN(c2ccc(C(=O)Nc3n[nH]c4ccc(Cc5cc(F)cc(F)c5)cc34)c(NC3CCOCC3)c2)CC1 [Entrectinib]
- IC50 [1]: 1.33 µM and 1.3 µM
- CYP3A4 induction in vitro, in words ([2]; in vitro): weak CYP3A4 inducer
- induction of CYP1A2 mRNA or enzyme activity ([3]; human hepatocytes): did not significantly induce
- Entrectinib Metabolism to M5 [4]: -
- Entrectinib Metabolism to other Products [4]: -
- IC50 [5]: > 10 µM
- IC50 [15]: > 10 µM
- Entrectinib Metabolism to M5 [7]: +
- Entrectinib Metabolism to other Products [7]: +
- t1/2 [9, 16]: 20.2 (17%) h
- t1/2 [9, 17]: 49.8 (22%) h
- increase of AUCinf ([9]; entrectinib coadministered with itraconazole vs alone): 504%
- Tmax ([9]; human, in vivo): 5 h
- AUC(0-inf) ([9]; human, in vivo, 100 mg): 6.19 µM·h
- Cmax ([9]; human, in vivo, 100 mg): 358 nM
- Tmax ([9]; human, in vivo, 100 mg): 2 h
- half-life ([9]; human, in vivo, 100 mg, t1/2, Entrectinib 100 mg alone, geometric mean (geometric CV)): 20 h
- half-life ([9]; human, in vivo, t1/2, Entrectinib 100 mg with itraconazole 200 mg QD, geometric mean (geometric CV)): 50 h
- median Tmax later ([9]; with itraconazole vs entrectinib alone): approximately 3 h
- Entrectinib Metabolism to M5 [10]: -
- Entrectinib Metabolism to other Products [10]: -
- Entrectinib Metabolism to M5 [12]: ++
- Entrectinib Metabolism to other Products [12]: +
- IC50 [13]: > 10 µM
- Entrectinib Metabolism to M5 [14]: +
- Entrectinib Metabolism to other Products [14]: -
